Data taken from ChEMBL document CHEMBL5550180, “Enhancing anti-cancer capacity: Novel class I/II HDAC inhibitors modulate EMT, cell cycle, and apoptosis pathways” (Bioorg Med Chem, 2024).
Activity calls are given as the source filed them. No cut-off for these calls is given here.

Assays:
A549 [1] = assay: cells; format: functional, cell-based; details: Homo sapiens, A549, 48 h
Description: Anticancer activity against human A549 cells assessed as inhibition of cell growth measured for 48 hrs by MTT assay

HT-29 [2] = assay: cells; format: functional, cell-based; details: Homo sapiens, HT-29, 48 h
Description: Anticancer activity against human HT-29 cells assessed as inhibition of cell growth measured for 48 hrs by MTT assay

NCI-H1299 = assay: Anticancer activity against human NCI-H1299 cells assessed as reduction in cell viability at 10 to 40 uM incubated for 48 hrs by MTT assay; format: functional, cell-based; details: dose 10-40 µM
A549 [3] = assay: Anticancer activity against human A549 cells assessed as suppression of cell viability at 10 uM incubated for 48 hrs by MTT assay; format: functional, cell-based
HT-29 [4] = assay: Anticancer activity against human HT-29 cells assessed as suppression of cell viability at 10 uM incubated for 48 hrs by MTT assay; format: functional, cell-based
A549 [5] = assay: Anticancer activity against human A549 cells assessed as viable cells by measuring green fluorescence intensity measured for 48 hrs by Calcein AM staining based fluorescent microscopic analysis; format: functional, cell-based; details: dose 1-20 µM
HT-29 [6] = assay: Anticancer activity against human HT-29 cells assessed as viable cells by measuring green fluorescence intensity measured for 48 hrs by Calcein AM staining based fluorescent microscopic analysis; format: functional, cell-based; details: dose 1-20 µM
A549 [7] = assay: Inhibition of colony formation in human A549 cells at 125 to 250 nM measured for 10 days by crystal violet staining based analysis; format: functional, cell-based; details: dose 125-250 nM, time 10.0 day
HT-29 [8] = assay: Inhibition of colony formation in human HT-29 cells at 50 to 100 nM measured for 10 days by crystal violet staining based analysis; format: functional, cell-based; details: dose 50-100 nM, time 10.0 day
[9] = target: T1, Histone deacetylase (Homo sapiens) (UniProt Q13547+O15379+Q9UBN7+Q92769+Q9UQL6+Q8WUI4+Q9BY41+Q96DB2+P56524+Q9UKV0+Q969S8); assay: Inhibition of HDAC in human A549 cells incubated for 48 hrs by Western blot analysis; format: cell-based; details: dose 0.1-10 µM
[10] = target: T1, Histone deacetylase (Homo sapiens); assay: Inhibition of HDAC in human HT-29 cells incubated for 48 hrs by Western blot analysis; format: cell-based; details: dose 0.1-10 µM
[11] = target: T1, Histone deacetylase (Homo sapiens); assay: Inhibition of HDAC in human HT-29 cells assessed as increase in histone acetylation level at 1 to 2 uM incubated for 48 hrs by Western blot analysis; format: cell-based; details: dose 1-2 µM
[12] = target: T1, Histone deacetylase (Homo sapiens); assay: Inhibition of HDAC in human HT-29 cells assessed as increase in acetyl alpha-tubulin level at 1 to 2 uM incubated for 48 hrs by Western blot analysis; format: cell-based; details: dose 1-2 µM
A549 [13] = assay: Inhibition of cell migration in human A549 cells at 1.25 uM measured at 24 hrs by wound healing assay (reference value: 68.4%); format: functional
HT-29 [14] = assay: Inhibition of cell migration in human HT-29 cells assessed as upregulation of E-cadherin level at 1 to 2 uM incubated for 48 hrs by Western blot analysis; format: functional, cell-based; details: dose 1-2 µM
HT-29 [15] = assay: Inhibition of cell migration in human HT-29 cells assessed as downregulation of vimentin level at 1 to 2 uM incubated for 48 hrs by Western blot analysis; format: functional, cell-based; details: dose 1-2 µM
HT-29 [16] = assay: Inhibition of cell migration in human HT-29 cells assessed as downregulation of slug level at 1 to 2 uM incubated for 48 hrs by Western blot analysis; format: functional, cell-based; details: dose 1-2 µM
A549 [17] = assay: Induction of cell cycle arrest in human A549 cells assessed as accumulation at G2/M phase at 2.5 to 5 uM incubated for 24 to 48 hrs by PI-staining based flow cytometric analysis; format: functional; details: dose 2.5-5 µM, time 24-48 hrs
HT-29 [18] = assay: Induction of cell cycle arrest in human HT-29 cells assessed as accumulation at G2/M phase at 2.5 to 5 uM incubated for 24 to 48 hrs by PI-staining based flow cytometric analysis; format: functional; details: dose 2.5-5 µM, time 24-48 hrs
A549 [19] = assay: Induction of cell cycle arrest in human A549 cells assessed as accumulation at sub G1 at 2.5 to 5 uM incubated for 24 to 48 hrs by PI-staining based flow cytometric analysis; format: functional; details: dose 2.5-5 µM, time 24-48 hrs
A549 [20] = assay: Induction of apoptosis in human A549 cells assessed as increase in PARP level at 2.5 to 5 uM incubated for 48 hrs by Western blot analysis; format: functional, cell-based; details: dose 2.5-5 µM
A549 [21] = assay: Induction of apoptosis in human A549 cells assessed as increase in caspase 3 level at 2.5 to 5 uM incubated for 48 hrs by Western blot analysis; format: functional, cell-based; details: dose 2.5-5 µM
A549 [22] = assay: Induction of apoptosis in human A549 cells assessed as upregulation of p53 expression at 2.5 to 5 uM incubated for 48 hrs by Western blot analysis; format: functional, cell-based; details: dose 2.5-5 µM
A549 [23] = assay: Induction of cell cycle arrest in human A549 cells assessed as effect on p21 level at 2.5 to 5 uM incubated for 48 hrs by Western blot analysis; format: functional, cell-based; details: dose 2.5-5 µM
A549 [24] = assay: Induction of cell cycle arrest in human A549 cells assessed as effect on cyclin B1 level at 2.5 to 5 uM incubated for 48 hrs by Western blot analysis; format: functional, cell-based; details: dose 2.5-5 µM
A549 [25] = assay: Anticancer activity against human A549 cells cultured as 3D spheroids assessed as suppression of cell growth at 10 uM incubated for 48 hrs by celltiter-glo luminescent assay; format: functional, cell-based
[26] = Toxicity in zebrafish embryo assessed as hatching rate at 0.5 to 2.5 uM measured after 72 hrs post fertilization by microscopic analysis; set-up: species or system Danio rerio; details: in vivo, dose 0.5-2.5 µM
[27] = Toxicity in zebrafish embryo assessed as survival rate at 0.5 to 2.5 uM measured after 72 hrs post fertilization; set-up: species or system Danio rerio; details: in vivo, dose 0.5-2.5 µM
[28] = Toxicity in zebrafish embryo assessed as effect on body length at 0.5 to 2.5 uM measured after 96 hrs post fertilization by microscopic analysis; set-up: species or system Danio rerio; details: in vivo, dose 0.5-2.5 µM
[29] = Toxicity in zebrafish embryo assessed as formation of scoliosis at 0.5 to 2.5 uM measured after 96 hrs post fertilization by microscopic analysis; set-up: species or system Danio rerio; details: in vivo, dose 0.5-2.5 µM
[30] = Toxicity in zebrafish embryo assessed as formation of spinal curvature at 0.5 to 2.5 uM measured after 96 hrs post fertilization by microscopic analysis; set-up: species or system Danio rerio; details: in vivo, dose 0.5-2.5 µM
[31] = Toxicity in zebrafish embryo assessed as formation of spinal curvature at 1 to 5 uM measured after 96 hrs post fertilization by microscopic analysis; set-up: species or system Danio rerio; details: in vivo, dose 1-5 µM
[32] = Toxicity in zebrafish embryo assessed as yolk sac edema at 0.5 to 2.5 uM measured after 96 hrs post fertilization by microscopic analysis; set-up: species or system Danio rerio; details: in vivo, dose 0.5-2.5 µM
A549 [33] = assay: Inhibition of cell migration in human A549 cells at 1.25 uM measured at 48 hrs by wound healing assay (reference value: 42.3%); values are per cent of control; details: A549, 48 h
HT-29 [34] = assay: Inhibition of cell migration in human HT-29 cells at 0.5 uM measured at 24 hrs by wound healing assay (reference value: 85.7%); values are per cent of control; details: HT-29, 24 h
HT-29 [35] = assay: Inhibition of cell migration in human HT-29 cells at 0.5 uM measured at 48 hrs by wound healing assay (reference value: 73.2%); values are per cent of control; details: HT-29, 48 h
A549 [36] = assay: Inhibition of cell migration in human A549 cells at 1.25 uM measured immediately by wound healing assay (reference value: 100%); values are per cent of control
HT-29 [37] = assay: Inhibition of cell migration in human HT-29 cells at 0.5 uM measured immediately by wound healing assay (reference value: 100%); values are per cent of control

COc1ccc(S(=O)(=O)n2cc(Cc3ccc(C(=O)Nc4ccccc4N)cc3)c3ccccc32)cc1
IC50 (A549 [1]): 2520 nM
IC50 (HT-29 [2]): 920 nM
Activity (NCI-H1299): Active
Activity (A549 [3]): Active
Activity (HT-29 [4]): Active
Activity (A549 [5]): Dose-Dependent Effect
Activity (HT-29 [6]): Dose-Dependent Effect
inhibition (A549 [7]): Active
inhibition (HT-29 [8]): Active
inhibition [9]: Active
inhibition [10]: Active
inhibition [11]: Active
inhibition [12]: Active
inhibition at 1.25 µM (A549 [13]): 77.4%
inhibition (HT-29 [14]): Active
inhibition (HT-29 [15]): Active
inhibition (HT-29 [16]): Active
Activity (A549 [17]): Active
Activity (HT-29 [18]): Active
Activity (A549 [19]): Active
Activity (A549 [20]): Active
Activity (A549 [21]): Active
Activity (A549 [22]): Active
Activity (A549 [23]): Active
Activity (A549 [24]): Active
Activity (A549 [25]): Active
Activity [26]: 100%
survival at 72 h, up to 2.5 µM [27]: ~100%
Activity [28]: Non-Toxic
Activity [29]: Non-Toxic
Activity [30]: Non-Toxic
Activity [31]: Non-Toxic
Activity [32]: Non-Toxic
wound area remaining at 1.25 µM (A549 [33]): 53.3%
wound area remaining at 0.5 µM (HT-29 [34]): 93.8%
wound area remaining at 0.5 µM (HT-29 [35]): 90.1%
wound area remaining at 1.25 µM (A549 [36]): 100%
wound area remaining at 0.5 µM (HT-29 [37]): 100%
